ChEMBL document CHEMBL5620412, “Discovery of benzofuran-2-carboxylic acid derivatives as lymphoid tyrosine phosphatase (LYP) inhibitors for cancer immunotherapy” (Eur J Med Chem, 2023)
Active and inactive are the calls of the source. No cut-off for these calls is given here.

How the values were obtained:
MC-38 [1] = test: Antitumor immunity against mouse MC-38 cells implanted in syngenic C57BL/6J mouse model assessed as increase in CD45+ cell proportion in tumor at 50 mg/kg, IG administered twice daily for 14 days by flow cytometric analysis; format: functional, organism-based; conditions: time 14.0 day
MC-38 [2] = test: Antitumor immunity against mouse MC-38 cells implanted in syngenic C57BL/6J mouse model assessed as increase in M1 tumor associated macrophage proportion in tumor at 50 mg/kg, IG administered twice daily for 14 days by flow cytometric analysis; format: functional, organism-based; conditions: time 14.0 day
MC-38 [3] = test: Antitumor activity against mouse MC-38 cells implanted in syngenic C57BL/6J mouse model assessed as tumor growth inhibition at 50 mg/kg, IG administered twice daily for 14 days in presence of anti-PD-L1 antibody relative to control; format: functional; conditions: MC-38, po, 336 h, time 14 day, read-out: TGI
MC-38 [4] = test: Antitumor immunity against mouse MC-38 cells implanted in syngenic C57BL/6J mouse model assessed as increase in Ki67 positive CD8+ T cells at 50 mg/kg, IG administered twice daily for 14 days by Ki67 staining based flow cytometric analysis; format: functional, organism-based; conditions: time 14.0 day
[5] = Toxicity in C57BL/6J syngenic mouse implanted with mouse MC-38 cells assessed as effect on body weight at 50 mg/kg, IG administered twice daily for 14 days; format: organism-based; conditions: in vivo, po, 336 h, time 14 day
MC-38 [6] = test: Antitumor immunity against mouse MC-38 cells implanted in syngenic C57BL/6J mouse model assessed as upregulation of PD1 expression in CD4+ T cells at 50 mg/kg, IG administered twice daily for 14 days by flow cytometric analysis; format: functional, organism-based; conditions: time 14.0 day
[7] = biological target: T1, Tyrosine-protein phosphatase non-receptor type 22 (Homo sapiens) (UniProt Q9Y2R2); test: Reversible binding affinity to N-terminal His-tagged LYP catalytic domain (1 to 294 residues) (unknown origin) expressed in Escherichia coli BL21 (DE3) cells using pNPP as substrate incubated for 10 to 90 mins by absorbance based assay; conditions: time 10-90 min
T1 sequence (whole entry): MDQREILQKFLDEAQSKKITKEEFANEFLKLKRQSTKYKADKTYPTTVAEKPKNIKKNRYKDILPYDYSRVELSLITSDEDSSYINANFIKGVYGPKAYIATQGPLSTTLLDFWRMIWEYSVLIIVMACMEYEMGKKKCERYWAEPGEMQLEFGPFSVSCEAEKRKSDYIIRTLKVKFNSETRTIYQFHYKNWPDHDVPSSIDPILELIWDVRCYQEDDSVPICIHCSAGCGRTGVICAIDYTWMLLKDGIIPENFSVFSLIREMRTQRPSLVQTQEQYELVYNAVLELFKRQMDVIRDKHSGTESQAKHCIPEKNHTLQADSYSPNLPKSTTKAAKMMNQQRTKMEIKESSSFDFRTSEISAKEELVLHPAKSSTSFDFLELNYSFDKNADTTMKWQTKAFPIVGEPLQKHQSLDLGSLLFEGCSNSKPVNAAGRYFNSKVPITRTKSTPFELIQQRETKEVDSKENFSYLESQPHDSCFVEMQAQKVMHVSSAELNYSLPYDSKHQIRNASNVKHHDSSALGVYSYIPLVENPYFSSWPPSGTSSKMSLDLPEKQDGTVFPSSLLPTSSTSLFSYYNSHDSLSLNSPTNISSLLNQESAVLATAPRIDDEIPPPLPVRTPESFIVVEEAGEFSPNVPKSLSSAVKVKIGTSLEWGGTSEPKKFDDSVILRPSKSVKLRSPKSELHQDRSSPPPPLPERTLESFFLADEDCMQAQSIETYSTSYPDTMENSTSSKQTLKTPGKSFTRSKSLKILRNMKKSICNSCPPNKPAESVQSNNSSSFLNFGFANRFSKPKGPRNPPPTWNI

| Structure (SMILES) | Activity (MC-38 [1]) | Activity (MC-38 [2]) | inhibition in vivo at 50 mg/kg (MC-38 [3]) | Activity (MC-38 [4]) | Activity [5] | Activity (MC-38 [6]) | Activity [7] |
| --- | --- | --- | --- | --- | --- | --- | --- |
| COc1ccc(-c2ccc(CN(c3ccc4oc(C(=O)O)cc4c3)S(=O)(=O)c3ccc(Cl)c([N+](=O)[O-])c3)cc2)cc1 | Active | Active | 94.3% | Active | Non-Toxic | Active | – |
| O=C(O)c1cc2cc(N(Cc3ccc(OCc4ccccc4)cc3)S(=O)(=O)c3ccc(-c4ccccc4)cc3)ccc2o1 | Active | Active | 94.3% | Active | Non-Toxic | Active | Active |
